From US6328998A, “Composition comprising L-carnitine or an alkanoyl L-carnitine and long-chain alkanols” (Sigma-Tau Industrie Farmaceutiche Riunite S.p.A., priority 1997, dated 2001)

Columns and labels:
[1] = tested on: left ventricular arrhythmias due to myocardial anoxia; assay: Cardiac anoxia induced by coronary ligation (left ventricular arrhythmias); type: in vivo, Male Wistar rats; conditions: for Start of arrhythmias / Total ectopic contractions during 30 min after coronary ligation: L-carnitine 100 mg/kg, hexacosanol 10 mg/kg or both into left ventricle 15 min before ligation; for Start of arrhythmias: controls 4-7; for Total ectopic contractions during 30 min after coronary ligation: controls 992 ± 118; for ability to reduce ectopic contractions (in words): administered alone
Method: These tests were performed to evaluate the protective action of L-carnitine and hexacosanol and their combination on left ventricular arrhythmias due to myocardial anoxia induced by coronary ligation according to the technique described by Selych et cal. (Angiology 11-398, 1960) and by Clark et al. (J Pharmacol Methods 3-357, 1980). Male Wistar rats with a mean body weight of 350-400 g were submitted to surgical occlusion of the left coronary artery. Arrhythmias set in within 4-7 min of coronary ligation. Ventricular ectopic contractions were then counted during a period of 30 min both in a group of control rats and in the groups of rats receiving slow injection of a solution containing L-carnitine (100 mg/kg), hexacosanol (10 mg/kg) or the two substances in combination at the same doses into the left ventricle 15 min before ligation.

blood cholesterol = assay: Experimental cholesterolaemia tests; type: in vivo; conditions: for total cholesterol: daily for six weeks with cholesterolaemia-lowering diet, L-carnitine 100 mg/kg, hexacosanol 10 mg/kg or both, controls 95.2 ± 5.4, hypercholesterolaemic controls 285.7 ± 11.2; for cholesterolaemia-lowering action (in words): six weeks
From the text: In experimental cholesterolaemia, too, a marked synergistic effect of the L-carnitine plus hexacosanol combination was detected. In these tests, the experimental cholesterolaemia was induced according to the method described by Sirtori (Sirtori CR, Atherosclerosis 26-27, 1977). Treatment both With L-carnitine and hexacosanol, as well as with the two compounds in combination, was continued daily for six weeks, in conjunction with a cholesterolaemia-lowering diet. On completing the six weeks of treatment, blood cholesterol was assayed both in control animals put on a cholesterolaemia-lowering diet alone and in animals treated with L-carnitine, or with hexacosanol, or with the two compounds in combination. Using the assay method described by Roschlan (Roschlan P, Clin Chem Clin Biochem 12: 403, 1975).

[2] = tested on: ATP content of the papillary muscle; assay: ATP concentrations in papillary muscle of rabbits with induced hypoxia; type: in vivo, New Zealand rabbits; conditions: L-carnitine 100 mg/kg, hexacosanol 10 mg/kg or both, i.v. daily for 3 days; for ATP content after hypoxia: 60 min of hypoxia, controls 0.45 ± 0.03; for ATP content before hypoxia: normal perfusion 90 min, controls 1.65 ± 0.28
Method: These tests were performed in New Zealand rabbits with a mean body weight of 2 kg, receiving daily intravenous injections of a solution containing 100 mg/kg of L-carnitine or 10 mg/kg of hexacosanol, or of the two substances combined at the same doses, for 3 consecutive days. A group of animals received no treatment and served as the control group.
All the animals treated were sacrificed along with the controls at the end of the third day of treatment two hours after the last injection. The hearts were removed and equal sections of papillary muscle measuring 1 mm in diameter and 4-5 mm in thickness were isolated. These tissues were perfused in a thermostatic bath with a (100%) saturated O2 solution. Experimental hypoxia conditions were induced by introducing N2 (100%) into the bath in place of O2. […] The analysis was done on tissue samples maintained under normal perfusion conditions for 90 min and after 60 min of hypoxia.

platelet aggregation = assay: Platelet aggregation inhibition tests (collagen-induced); type: cell-based, healthy volunteers; conditions: collagen 2.5 ng/mL, 10 min incubation
Method: The tests were performed using plasma from healthy volunteers containing at least 300,000 platelets/mm^3.
The platelet count was done using a CA 580A Platelet Counter (Delcon). Platelet aggregation was induced using collagen as the aggregating agent at doses of 2.5 and 5 ng/mL according to the technique described by Born and Cross (Born YVR, Cross M, J Physiol 26: 25, 1963).
Platelet aggregation was determined photometrically (Born VJR, Nature 194: 927, 1962) using an Elvi 840 aggregometer.
Platelet aggregation was measured in basal conditions and after 10 min of incubation with L-carnitine, hexacosanol and the L-carnitine-hexacosanol combination.

[3] = tested on: atherosclerotic lesions (abdominal aorta); assay: Experimental atherosclerosis tests (atherogenic diet); type: in vivo, Wistar male rats; conditions: abdominal aorta thickness and Sudan IV staining, 1- to 5-point score
Method: D2 200 m STU/g diet. The anti-atherogenic effect of both L-carnitine and hexacosanol were evaluated by using morphometric methods to measure the thickness of the abdominal aorta and the intensity of the staining induced by Sudan IV, with a 1- to 5-point scoring system, according to the degree of severity.

[4] = Prolonged daily administration (30 days) tolerability, body weight, blood chemistry and histology; type: in vivo, rats and mice; conditions: daily for 30 days; carnitine 250 mg/kg or hexacosanol 20 mg/kg, alone or in combination
From the text: Moreover, no abnormalities were found at histological examination of the parenchyma of the main organs (heart, lungs, kidneys, adrenal glands and pancreas).

[5] = Acute oral toxicity in rats; type: in vivo; conditions: 2 g/kg L-carnitine or 500 mg/kg hexacosanol, alone or in combination
[6] = Acute oral toxicity in mice; type: in vivo; conditions: 2 g/kg L-carnitine or 500 mg/kg hexacosanol, alone or in combination

CCCCCCCCCCCCCCCCCCCCCCCCCCO [Hexacosanol]
Start of arrhythmias [1]: 5 to 7 min
Total ectopic contractions during 30 min after coronary ligation [1]: 810 ± 190
ability to reduce ectopic contractions (in words) [1]: only a very limited ability to reduce ectopic contractions
total cholesterol (blood cholesterol): 268.5 ± 5.6 mg/dL
cholesterolaemia-lowering action (in words) (blood cholesterol): fairly modest
ATP content after hypoxia [2]: 0.77 ± 0.05 µmol/g tissue
ATP content before hypoxia [2]: 1.7 ± 0.3 µmol/g tissue
IC50 (platelet aggregation; Homo sapiens, Platelet, 10 min, read-out: ED50, inhibition of platelet aggregation induced by collagen): 5.5 ng/mL
effect on platelet aggregation induced by collagen (in words) (platelet aggregation): only partly inhibiting the platelet aggregation
severity/occurrence of atherosclerotic lesions (in words) [3]: capable of reducing the severity of the atherosclerotic lesions

C[N+](C)(C)C[C@H](O)CC(=O)[O-] [L-carnitine]
signs of toxic reactions or of poor tolerability [4]: failed to produce any signs of toxic reactions or of poor tolerability
Start of arrhythmias [1]: 4 to 7 min
Total ectopic contractions during 30 min after coronary ligation [1]: 860 ± 202
ability to reduce ectopic contractions (in words) [1]: only a very limited ability to reduce ectopic contractions
mortality [5]: without any mortality
signs of toxicity [5]: without any evident signs of toxicity
total cholesterol (blood cholesterol): 265.5 ± 6.1 mg/dL
cholesterolaemia-lowering action (in words) (blood cholesterol): fairly modest
mortality [6]: without any mortality
signs of toxicity [6]: without any evident signs of toxicity
ATP content after hypoxia [2]: 0.67 ± 0.02 µmol/g tissue
ATP content before hypoxia [2]: 1.77 ± 0.25 µmol/g tissue
effect on platelet aggregation induced by collagen (in words) (platelet aggregation): not changed
severity/occurrence of atherosclerotic lesions (in words) [3]: capable of reducing the severity of the atherosclerotic lesions
